{
  "source": "paper PMC9213526",
  "about": "“Glycoside hydrolase from the GH76 family indicates that marine Salegentibacter sp. Hel_I_6 consumes alpha-mannan from fungi” (The ISME Journal, 2022)",
  "key": {"[1]": {"molecular_target": "T1, ShGH76 (Salegentibacter sp. Hel_I_6, UniProt A0ACD6BAU6, D116A/D117A, form not given)", "T1 construct": "gene GH76A; synthetic gene in pET28a(+) (NheI/XhoI), N-terminal 6xHis tag, E. coli BL21(DE3); modelled residues Asp54-Glu391", "assay": "X-ray crystallography of the complex, […] Å", "format": "binding", "details": "inactive double mutant ShGH76^Ala; co-crystallised in 1.6 M tri-sodium citrate; active site"}, "[2]": {"molecular_target": "T2, ShGH76 (Salegentibacter sp. Hel_I_6, UniProt A0ACD6BAU6)", "T2 construct": "gene GH76A; synthetic gene in pET28a(+) (NheI/XhoI), N-terminal 6xHis tag, E. coli BL21(DE3); modelled residues Asp54-Glu391", "assay": "HPAEC-PAD product analysis", "format": "biochemical"}, "[3]": {"molecular_target": "T3, ShGH76 (Salegentibacter sp. Hel_I_6, UniProt A0ACD6BAU6, D116N/D117N, form not given)", "T3 construct": "gene GH76A; synthetic gene in pET28a(+) (NheI/XhoI), N-terminal 6xHis tag, E. coli BL21(DE3); modelled residues Asp54-Glu391", "assay": "X-ray crystallography of the complex, […] Å", "format": "binding", "details": "inactive double mutant ShGH76^Asn; co-crystallised at pH 4.6 with 140 mM calcium chloride; active site"}},
  "data": [
    {"molecule": "OC[C@H]1O[C@H](OC[C@H]2O[C@H](OC[C@H]3O[C@H](OC[C@H]4OC(O)[C@@H](O)[C@@H](O)[C@@H]4O)[C@@H](O)[C@@H](O)[C@@H]3O)[C@@H](O)[C@@H](O)[C@@H]2O)[C@@H](O)[C@@H](O)[C@@H]1O", "note": "(stereo partly drawn) [Man4, α-1,6-mannotetrose]", "values": [
      {"measurement": "X-ray crystallography of the complex, 1.90 Å", "setting": "[1]", "value": "crystal structures of ShGH76^WT (apo-form), ShGH76^Asn (with Man3) and ShGH76^Ala (with Man4)"}
    ]},
    {"molecule": "OC[C@H]1O[C@H](OC[C@H]2O[C@H](OC[C@H]3O[C@H](OC[C@H]4O[C@H](OC[C@H]5O[C@H](OC[C@H]6O[C@H](OC[C@H]7OC(O)[C@@H](O)[C@@H](O)[C@@H]7O)[C@@H](O)[C@@H](O)[C@@H]6O)[C@@H](O)[C@@H](O)[C@@H]5O)[C@@H](O)[C@@H](O)[C@@H]4O)[C@@H](O)[C@@H](O)[C@@H]3O)[C@@H](O)[C@@H](O)[C@@H]2O)[C@@H](O)[C@@H](O)[C@@H]1O", "note": "(stereo partly drawn) [Man7, mannoheptose]", "values": [
      {"measurement": "HPAEC-PAD product analysis", "setting": "[2]", "value": "As is exemplarily shown for Man7 (Fig. 5D), ShGH76^WT hydrolyzed α-1,6-mannooligosaccharides almost completely"}
    ]},
    {"molecule": "OC[C@H]1O[C@H](OC[C@H]2O[C@H](OC[C@H]3OC(O)[C@@H](O)[C@@H](O)[C@@H]3O)[C@@H](O)[C@@H](O)[C@@H]2O)[C@@H](O)[C@@H](O)[C@@H]1O", "note": "(stereo partly drawn) [Man3, α-1,6-mannotriose]", "values": [
      {"measurement": "X-ray crystallography of the complex, 1.47 Å", "setting": "[3]", "value": "crystal structures of ShGH76^WT (apo-form), ShGH76^Asn (with Man3) and ShGH76^Ala (with Man4)"}
    ]}
  ]
}
